Reference: US20020051828A1, “Mixtures which can be isolated from eugenia jambolana lamarck seeds, their preparation and the use of these mixtures and some of their constituents as medicaments” (priority 1996, published 2002)

Experiments:
[1] = test system: mice made diabetic with streptozotocin; experiment: glycaemia of mice made diabetic with streptozotocin; format: in vivo, Swiss albino mice; conditions: for GLYCAEMIA AT D5 / % change in glycaemia: 0.5 mg/mouse/day by gastric intubation for 4 days; for GLYCAEMIA AT D5: D5, after 4 h fasting; for % change in glycaemia: glycaemia D5 versus D1; for GLYCAEMIA AT D1: 0.5 mg/mouse/day by gastric intubation, D1, start of treatment, after 4 h fasting
Description: (§1) The hypoglycaemic activity of the mixtures I and II, of sodium oxamate and of the compounds of formula (I) have been determined in mice made diabetic with streptozocin and in normal mice with post-prandial hyperglycaemia according to the following procedures:
I—Mice Made Diabetic with Streptozotocin
Swiss albino mice weighing between 22 and 25 g are made diabetic with streptozotocin administered by intraperitoneal injection at a dose of 210 or 265 mg/Kg of mouse, diluted in a citrate buffer at a concentration such that each mouse receives 0.2 ml of the solution on day 1 (D1). 3 to 4 days later, a check is made on 2 to 3 mice to see if the diabetes is established (glycaemia greater than 7.2 mmol/liter (130 mg per 100 ml). The glycaemia is then measured after starving for 4 hours. If the mice have become diabetic, they are divided into batches of 5 to 7 mice. Each of the batches receives, from D1 and daily, a selected dose of product. The administration is made once a day and at a fixed time, by gastric intubation and in a volume of 0.4 ml of distilled water as vehicle. Two batches of controls are made up:
one batch of untreated diabetic mice
These two batches of controls receive 0.4 ml of vehicle by gastric intubation and simultaneously with the treated mice.
The treatment lasts for 4 days. On the 5th day (D5), there is no administration of product. After fasting for 4 hours, the final glycaemias are measured.

[2] = test system: normal mice with post-prandial hyperglycaemia; experiment: glycaemia of normal mice with post-prandial hyperglycaemia; format: in vivo, Swiss albino mice; conditions: 0.5 mg/mouse by gastric intubation; for GLYCAEMIA AT T0: T0, before administration; for GLYCAEMIA AT T60: T60, one hour after administration; for % inhibition: glycaemia T60 versus T0
Description: as §1
II—Normal Mice with Post-prandial Hyperglycaemia
Swiss albino mice weighing between 22 and 25 g are made to have post-prandial hyperglycaemia by the following procedure:
food in excess for 1 hour
The glycaemia is measured at the end of the last two hours of fasting, which constitutes the glycaemia at time T0. The mice are then divided into homogeneous batches according to the measured glycaemias. The products to be evaluated are administered without delay by gastric intubation in 0.4 ml of distilled water. The control batch receives the excipient (0.4 ml of distilled water). After one hour, the final glycaemias are measured which constitute the glycaemia at time T60.

[3] = oral toxicity (LD50) in mice; conditions: mouse, in vivo, orally in mice
Description: The mixtures according to the invention, the sodium oxamate and the compounds of formula (I) have a low toxicity. Their LD50 is greater than 2000 mg/kg orally in mice.

OCC(O)C(O)Cc1cnc(C(O)C(O)C(O)CO)cn1 (stereo not shown) [2-(tetrahydroxybutyl)-5-(2′,3′,4′-trihydroxybutyl)pyrazine]
GLYCAEMIA AT D5 [1]: 164.50 mg/100 ml
% change in glycaemia [1]: −45.93%
GLYCAEMIA AT D1 [1]: 304.25 mg/100 ml
GLYCAEMIA AT T0 [2]: 128.75 mg/100 ml
GLYCAEMIA AT T60 [2]: 90.50 mg/100 ml
% inhibition [2]: −29.70%

OCC(O)C(O)C(O)c1cnc(C(O)C(O)C(O)CO)cn1 (stereo not shown) [2,5-di(tetrahydroxybutyl)pyrazine, 2,5-di-(tetrahydroxybutyl)pyrazine]
GLYCAEMIA AT T0 [2]: 136.25 mg/100 ml
GLYCAEMIA AT T60 [2]: 102.41 mg/100 ml
% inhibition [2]: −24.83%

NC(=O)C(=O)[O-].[Na+] [Sodium oxamate, sodium oxamate]
LD50 [3]: > 2000 mg/kg
GLYCAEMIA AT D5 [1]: 89.90 mg/100 ml
% change in glycaemia [1]: −41.46%
GLYCAEMIA AT D1 [1]: 153.40 mg/100 ml
GLYCAEMIA AT T0 [2]: 136.46 mg/100 ml
GLYCAEMIA AT T60 [2]: 102.93 mg/100 ml
% inhibition [2]: −24.57%
